Tested on: five species, planktonic mix of representative oral species (Actinomyces viscosus, Lactobacillus casei, Streptococcus oralis, Fusobacterium nucleatum, and …)
Assay: Resazurin bacterial inhibition assay
Format: cell-based
Details: 1% elemental Zn final concentration; 1 h incubation; resazurin fluorescence
From the text: The antibacterial activity of the Zn2CitCl (dizinc citrate chloride) complex was compared against zinc citrate (ZnCit) using the resazurin bacterial inhibition assay. In order to test this hypothesis, we used an assay we have developed based on the metabolic indicator dye resazurin. […] A five species, planktonic mix of representative oral species is used in this assay (Actinomyces viscosus, Lactobacillus casei, Streptococcus oralis, Fusobacterium nucleatum, and Veillonella parvula). Bacteria are incubated with the test solution for 1 h prior to staining with 50 μg/ml of resazurin solution. When viable, metabolically active bacteria are incubated with resazurin, the blue, non-fluorescent dye is reduced by the bacteria to the pink fluorescent dye resrufin. Fluorescence of test samples are read at 560 nm excitation/590 nm emission and compared to the fluorescence of standard mixes of live and dead bacteria to determine the percentage of the initial population that remained viable following treatment. Samples were tested at a final concentration of 1% elemental Zn for each compound indicated.

| Substance | % viability |
| --- | --- |
| sodium zinc citrate | 5.9% |
| basic sodium dizinc citrate chloride | 3.3% |
| basic sodium zinc citrate | 7.0% |
